Assay results from PubChem BioAssay (NCI).
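Growth conditions: 96-well plates. Treatment: test compound, 48 hours, 5 concentrations. Analysis: linear interpolation between bracketing concentrations; unreached endpoints set to highest concentration. At the TGI there is no net growth.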

Key:
Assay in all cases: NCI tumour cell line growth inhibition, 48 h
NCI-H226 lung = test system: NCI-H226 lung
SF-539 CNS = test system: SF-539 CNS
HOP-92 NSCLC = test system: HOP-92 NSCLC
MALME-3M melanoma = test system: MALME-3M melanoma
UACC-257 melanoma = test system: UACC-257 melanoma
HOP-18 NSCLC = test system: HOP-18 NSCLC
SR leukemia = test system: SR leukemia
HCT-15 colon = test system: HCT-15 colon
LXFL 529 NSCLC = test system: LXFL 529 NSCLC
HOP-62 NSCLC = test system: HOP-62 NSCLC
SK-MEL-2 melanoma = test system: SK-MEL-2 melanoma
MOLT-4 leukemia = test system: MOLT-4 leukemia
TK-10 renal = test system: TK-10 renal
A549 NSCLC = test system: A549 NSCLC
CCRF-CEM leukemia = test system: CCRF-CEM leukemia
UACC-62 melanoma = test system: UACC-62 melanoma
M19-MEL melanoma = test system: M19-MEL melanoma
HCC-2998 colon = test system: HCC-2998 colon
KM12 colon = test system: KM12 colon
DMS 114 small cell lung = test system: DMS 114 small cell lung
RXF 393 renal = test system: RXF 393 renal
786-0 renal = test system: 786-0 renal
SK-MEL-28 melanoma = test system: SK-MEL-28 melanoma
SNB-75 CNS = test system: SNB-75 CNS
NCI-H460 lung = test system: NCI-H460 lung
ACHN renal = test system: ACHN renal
KM20L2 colon = test system: KM20L2 colon
M14 melanoma = test system: M14 melanoma
SF-268 CNS = test system: SF-268 CNS
RXF-631 renal = test system: RXF-631 renal
LOX IMVI melanoma = test system: LOX IMVI melanoma
DMS 273 small cell lung = test system: DMS 273 small cell lung
U251 CNS = test system: U251 CNS
NCI-H23 lung = test system: NCI-H23 lung
SNB-19 CNS = test system: SNB-19 CNS
DLD-1 colon = test system: DLD-1 colon
SNB-78 CNS = test system: SNB-78 CNS
COLO 205 colon = test system: COLO 205 colon
OVCAR-8 ovarian = test system: OVCAR-8 ovarian
SW-620 colon = test system: SW-620 colon
HCT-116 colon = test system: HCT-116 colon
SK-MEL-5 melanoma = test system: SK-MEL-5 melanoma
CAKI-1 renal = test system: CAKI-1 renal
XF 498 CNS = test system: XF 498 CNS
SK-OV-3 ovarian = test system: SK-OV-3 ovarian
OVCAR-5 ovarian = test system: OVCAR-5 ovarian
HT29 colon = test system: HT29 colon
K-562 leukemia = test system: K-562 leukemia
EKVX NSCLC = test system: EKVX NSCLC
SN12C renal = test system: SN12C renal
HL-60(TB) leukemia = test system: HL-60(TB) leukemia
SF-295 CNS = test system: SF-295 CNS
OVCAR-4 ovarian = test system: OVCAR-4 ovarian
RPMI-8226 leukemia = test system: RPMI-8226 leukemia
UO-31 renal = test system: UO-31 renal
IGROV1 ovarian = test system: IGROV1 ovarian
OVCAR-3 ovarian = test system: OVCAR-3 ovarian
BT-549 breast = test system: BT-549 breast
SN12K1 renal = test system: SN12K1 renal
P388/ADR leukemia = test system: P388/ADR leukemia
MDA-N = test system: MDA-N
MCF7 breast = test system: MCF7 breast
T-47D breast = test system: T-47D breast
MDA-MB-231 breast = test system: MDA-MB-231 breast
A498 renal = test system: A498 renal
PC-3 prostate = test system: PC-3 prostate
MDA-MB-435 = test system: MDA-MB-435
NCI-H522 lung = test system: NCI-H522 lung
NCI/ADR-RES ovarian = test system: NCI/ADR-RES ovarian
DU-145 prostate = test system: DU-145 prostate
P388 leukemia = test system: P388 leukemia
HS 578T breast = test system: HS 578T breast

O=C1N=C2Sc3ccc4ccccc4c3N2C1=O
TGI (NCI-H226 lung): 57 µM
TGI (SF-539 CNS): 36.6 µM
TGI (HOP-92 NSCLC): 30.6 µM
TGI (MALME-3M melanoma): 47.9 µM
TGI (UACC-257 melanoma): 96.8 µM
TGI (HOP-18 NSCLC): 33 µM
TGI (SR leukemia): > 100 µM
TGI (HCT-15 colon): 61.9 µM
TGI (LXFL 529 NSCLC): 37.7 µM
TGI (HOP-62 NSCLC): 39.8 µM
TGI (SK-MEL-2 melanoma): 71.9 µM
TGI (MOLT-4 leukemia): > 100 µM
TGI (TK-10 renal): 81.6 µM
TGI (A549 NSCLC): 41.2 µM
TGI (CCRF-CEM leukemia): > 100 µM
TGI (UACC-62 melanoma): > 100 µM
TGI (M19-MEL melanoma): > 100 µM
TGI (HCC-2998 colon): 68.7 µM
TGI (KM12 colon): > 100 µM
TGI (DMS 114 small cell lung): > 100 µM
TGI (RXF 393 renal): 37 µM
TGI (786-0 renal): 36.1 µM
TGI (SK-MEL-28 melanoma): 56.3 µM
TGI (SNB-75 CNS): 40.7 µM
TGI (NCI-H460 lung): 70.2 µM
TGI (ACHN renal): 82.3 µM
TGI (KM20L2 colon): 64.4 µM
TGI (M14 melanoma): 73.8 µM
TGI (SF-268 CNS): 52.3 µM
TGI (RXF-631 renal): 51.9 µM
TGI (LOX IMVI melanoma): 38.2 µM
TGI (DMS 273 small cell lung): 53.2 µM
TGI (U251 CNS): 39.6 µM
TGI (NCI-H23 lung): 53.3 µM
TGI (SNB-19 CNS): 45.8 µM
TGI (DLD-1 colon): 95 µM
TGI (SNB-78 CNS): 79.5 µM
TGI (COLO 205 colon): > 100 µM
TGI (OVCAR-8 ovarian): 34 µM
TGI (SW-620 colon): 49.1 µM
TGI (HCT-116 colon): 32.9 µM
TGI (SK-MEL-5 melanoma): 58 µM
TGI (CAKI-1 renal): 46.2 µM
TGI (XF 498 CNS): 41.3 µM
TGI (SK-OV-3 ovarian): 31.6 µM
TGI (OVCAR-5 ovarian): > 100 µM
TGI (HT29 colon): 96.7 µM
TGI (K-562 leukemia): > 100 µM
TGI (EKVX NSCLC): 47.9 µM
TGI (SN12C renal): 43.8 µM
TGI (HL-60(TB) leukemia): > 100 µM
TGI (SF-295 CNS): 36.5 µM
TGI (OVCAR-4 ovarian): 32.7 µM
TGI (RPMI-8226 leukemia): > 100 µM
TGI (UO-31 renal): 33.3 µM
TGI (IGROV1 ovarian): 57.1 µM
TGI (OVCAR-3 ovarian): 37.1 µM

Cc1c2cc[n+](C)c(C)c2cc2c1[nH]c1ccccc12
TGI (BT-549 breast): 18.9 µM
TGI (NCI-H226 lung): 10.8 µM
TGI (SF-539 CNS): 46.2 µM
TGI (HOP-92 NSCLC): 50.8 µM
TGI (MALME-3M melanoma): 14.2 µM
TGI (UACC-257 melanoma): 65.8 µM
TGI (SN12K1 renal): 16.8 µM
TGI (P388/ADR leukemia): > 100 µM
TGI (HOP-18 NSCLC): 11.8 µM
TGI (MDA-N): > 93.8 µM
TGI (SR leukemia): > 100 µM
TGI (HCT-15 colon): > 100 µM
TGI (MCF7 breast): 70.1 µM
TGI (HOP-62 NSCLC): 37.5 µM
TGI (SK-MEL-2 melanoma): 30.5 µM
TGI (T-47D breast): 10.4 µM
TGI (MOLT-4 leukemia): 75.2 µM
TGI (MDA-MB-231 breast): > 36.3 µM
TGI (TK-10 renal): > 100 µM
TGI (A549 NSCLC): 68.7 µM
TGI (CCRF-CEM leukemia): 75.3 µM
TGI (UACC-62 melanoma): 48.8 µM
TGI (M19-MEL melanoma): 11.9 µM
TGI (A498 renal): > 100 µM
TGI (HCC-2998 colon): 32.2 µM
TGI (KM12 colon): 21.1 µM
TGI (DMS 114 small cell lung): 10.4 µM
TGI (RXF 393 renal): > 100 µM
TGI (786-0 renal): > 39.5 µM
TGI (SK-MEL-28 melanoma): 26.4 µM
TGI (SNB-75 CNS): 6.98 µM
TGI (NCI-H460 lung): 26.5 µM
TGI (ACHN renal): > 100 µM
TGI (KM20L2 colon): 44.5 µM
TGI (M14 melanoma): > 100 µM
TGI (SF-268 CNS): 5.6 µM
TGI (LOX IMVI melanoma): > 92.2 µM
TGI (DMS 273 small cell lung): 39.1 µM
TGI (U251 CNS): 8.41 µM
TGI (PC-3 prostate): > 100 µM
TGI (NCI-H23 lung): 16.3 µM
TGI (MDA-MB-435): > 75.2 µM
TGI (SNB-19 CNS): 7.22 µM
TGI (DLD-1 colon): > 100 µM
TGI (SNB-78 CNS): 72.2 µM
TGI (NCI-H522 lung): 18.2 µM
TGI (COLO 205 colon): 5.54 µM
TGI (OVCAR-8 ovarian): > 93.4 µM
TGI (NCI/ADR-RES ovarian): > 93.4 µM
TGI (SW-620 colon): > 95.1 µM
TGI (HCT-116 colon): > 86.1 µM
TGI (SK-MEL-5 melanoma): 11 µM
TGI (CAKI-1 renal): > 91.9 µM
TGI (DU-145 prostate): > 78 µM
TGI (SK-OV-3 ovarian): 89.2 µM
TGI (OVCAR-5 ovarian): 82.6 µM
TGI (HT29 colon): 83.8 µM
TGI (K-562 leukemia): 61.3 µM
TGI (P388 leukemia): 86.6 µM
TGI (EKVX NSCLC): 42.7 µM
TGI (HS 578T breast): 7.54 µM
TGI (SN12C renal): 8.54 µM
TGI (HL-60(TB) leukemia): 82.1 µM
TGI (SF-295 CNS): 32.3 µM
TGI (OVCAR-4 ovarian): 43.3 µM
TGI (RPMI-8226 leukemia): 73.5 µM
TGI (UO-31 renal): > 100 µM
TGI (IGROV1 ovarian): > 100 µM
TGI (OVCAR-3 ovarian): 57.7 µM

O=C1CCC2(c3ccc(Cl)cc3)Nc3cc(Cl)ccc3N12 (configuration not stated)
TGI (SF-539 CNS): 7.32 µM
TGI (MALME-3M melanoma): 24.5 µM
TGI (UACC-257 melanoma): 28.7 µM
TGI (HOP-18 NSCLC): 14.6 µM
TGI (SR leukemia): > 100 µM
TGI (HCT-15 colon): 25.3 µM
TGI (LXFL 529 NSCLC): 24.6 µM
TGI (HOP-62 NSCLC): 29.2 µM
TGI (SK-MEL-2 melanoma): 23.8 µM
TGI (A549 NSCLC): 26.5 µM
TGI (CCRF-CEM leukemia): 10.7 µM
TGI (UACC-62 melanoma): 21.2 µM
TGI (M19-MEL melanoma): 25.5 µM
TGI (A498 renal): 24.6 µM
TGI (KM12 colon): 24.4 µM
TGI (DMS 114 small cell lung): 21 µM
TGI (RXF 393 renal): 24.6 µM
TGI (786-0 renal): 21.8 µM
TGI (SK-MEL-28 melanoma): 25.3 µM
TGI (SNB-75 CNS): 27.7 µM
TGI (ACHN renal): 24 µM
TGI (KM20L2 colon): 28.9 µM
TGI (M14 melanoma): 28.7 µM
TGI (SF-268 CNS): 25.8 µM
TGI (RXF-631 renal): 28.9 µM
TGI (LOX IMVI melanoma): 24.5 µM
TGI (DMS 273 small cell lung): 22.3 µM
TGI (U251 CNS): 24.3 µM
TGI (NCI-H23 lung): 23.2 µM
TGI (SNB-19 CNS): 42.6 µM
TGI (DLD-1 colon): 20 µM
TGI (SNB-78 CNS): 43.4 µM
TGI (NCI-H522 lung): 22.6 µM
TGI (COLO 205 colon): 18 µM
TGI (OVCAR-8 ovarian): 20.6 µM
TGI (SW-620 colon): 19.6 µM
TGI (HCT-116 colon): 19.5 µM
TGI (SK-MEL-5 melanoma): 25.2 µM
TGI (XF 498 CNS): 15 µM
TGI (SK-OV-3 ovarian): 40.1 µM
TGI (HT29 colon): 25.2 µM
TGI (K-562 leukemia): 14.1 µM
TGI (EKVX NSCLC): 29.1 µM
TGI (SN12C renal): 28.6 µM
TGI (HL-60(TB) leukemia): 12 µM
TGI (SF-295 CNS): 21.4 µM
TGI (OVCAR-4 ovarian): 23.1 µM
TGI (RPMI-8226 leukemia): > 100 µM
TGI (UO-31 renal): 29.2 µM
TGI (IGROV1 ovarian): 28.7 µM
TGI (OVCAR-3 ovarian): 22.4 µM
